Numbers after ± are expanded uncertainties.
Experiments:
[1] = Molar enthalpy of transition or fusion; settings: Crystal; DSC
[2] = Crystal; DTA

SMILES: c1ccc2ccccc2c1 [naphthalene]
- Molar enthalpy of transition or fusion [1]: 4.67 ± 0.215 kcal/mol
- Normal melting temperature [2]: 81.54 ± 0.53 °C

SMILES: NCCCCCCN [1,6-hexanediamine]
- Molar enthalpy of transition or fusion [1]: 9.41 ± 0.263 kcal/mol
- Normal melting temperature [2]: 38.5 ± 0.53 °C

SMILES: NCCCCCCCCN [1,8-diaminooctane]
- Molar enthalpy of transition or fusion [1]: 12.1 ± 0.359 kcal/mol
- Normal melting temperature [2]: 51.73 ± 0.53 °C

SMILES: NCCCCCCCCCCCCN [1,12-dodecanediamine]
- Molar enthalpy of transition or fusion [1]: 16 ± 0.359 kcal/mol
- Normal melting temperature [2]: 68.69 ± 0.53 °C

— the NIST ThermoML archive (doi:10.1021/je0502851)
